These results are taken from patent US20210386695A1 (priority 2020, published 2021).

What all share (type): cell-based
Assay [1] deals with B.1.1.7 variant of SARS-CoV-2 pseudo-particles.
Assay [2] shares this test system. This is another data set of the same source.
Assay [3] concerns 501Y-V2 variant of SARS-CoV-2 pseudo-particles. In words: microbe, parasite or virus in culture. The note with it: Severe acute respiratory syndrome coronavirus 2, Vero C1008.
Assay [4] has as its system B.1.1.7 variant of SARS-CoV-2 pseudo-particles. Put plainly: microbe, parasite or virus in culture. The conditions noted are these: Severe acute respiratory syndrome coronavirus 2, Vero C1008.

Turning to `CCN(CC)C(=S)SSC(=S)N(CC)CC` [disulfiram], the “block of viral pseudo-particles infection” value in assay [1] is “dose-dependent manner”. Moreover, in assay [2], the “inhibitory capacity in furin-expressing Vero E6 cells compared with Vero E6 cells” value is “similar”. The EC50 in assay [3] was found to be 3.84 µM; in assay [4], 3.18 µM.
